Where two headings read alike, the source gives them in different places.
Experiments:
[1] = cited from earlier work
PAMPA permeability = format: in vitro ADME
Procedure: PAMPA permeability of the selected compositions was measured in order to select the pharmaceutical Tadalafil compositions having the best in-vitro performance (FIG. 2). PAMPA permeability measurements were performed as described by M. Kansi et al. (Journal of medicinal chemistry, 41, (1998) pp 1007) with modifications based on S. Bendels et al (Pharmaceutical research, 23 (2006) pp 2525). Permeability was measured in a 96-well plate assay across an artificial membrane composed of dodecane with 20% soy lecithin supported by a PVDF membrane (Millipore, USA). The receiver compartment was phosphate buffered saline (pH 7.0) supplemented with 1% sodium dodecyl sulfate. The assay was performed at room temperature; incubation time was 4 hours in ultrapurified water or 10-20 and 30 minutes in simulates saliva, respectively. The concentration in the receiver compartment was determined by UV-VIS spectrophotometry (Thermo Scientific Genesys S10).
PAMPA permeabilities of Tadalafil pharmaceutical compositions in water (H2O), FaSSIF (Fa) and FeSSIF (Fe) media were above 7.6×10^−6 cm/s, 7.2×10^−6 cm/s and 4.3×10^−6 cm/s, respectively, while it was 0.6×10^−6 cm/s, 0.6×10^−6 cm/s and 0.8*10^−6 cm/s in water, FaSSIF and FeSSIF media for the unformulated, crystalline reference. PAMPA permeability of Cialis® in water, FaSSIF and FeSSIF media was above 0.9×10^−6 cm/s, 0.8×10^−6 cm/s and 1.1×10^−6 cm/s, respectively.
PAMPA permeability of the solid Tadalafil pharmaceutical compositions was used to monitor the physical stability of the pharmaceutical formulation. PAMPA permeability was measured after storage at different conditions.

[2] = 10 mg/kg, beagle dog, cited from earlier work
[3] = cited from earlier work; remark: listed apart in the source

In the case of `Cc1cccc(O)c1O` [Methylcatechol], the “Methylcatechol concentrations relative to glucuronide concentrations” value ([1]; circulating metabolites of Tadalafil) is given as “less than 10%”.

For `CN1CC(=O)N2[C@H](c3ccc4c(c3)OCO4)c3[nH]c4ccccc4c3C[C@@H]2C1=O` [Tadalafil], the Papp (PAMPA permeability; pH 7, FaSSIF) was 0.6 ×10⁻⁶ cm/s, the Papp (PAMPA permeability; pH 7, FeSSIF) was 0.8 ×10⁻⁶ cm/s and the Papp at 4 h (PAMPA permeability; pH 7, Water) was 0.6 ×10⁻⁶ cm/s. The “Estimated F” value ([2]; iv, published (reference)) was 100%, the AUC24 ([2]; iv, published) was 22894 ng·h/mL and the Cmax ([2]; iv, published) was 3663 ng/mL. For the same compound, the AUC24 ([2]; oral, published) was 4109 ± 3141 ng·h/mL, the Cmax ([2]; oral, published) was 526 ± 281 ng/mL and the “Estimated F” value ([2]; oral, published) was 18%. For the same compound, the tmax ([2]; oral, published) was 3 h, the “Exposure (AUC) versus dose” value ([1]; dose range of 2.5 to 20 mg, healthy subjects) was “increases proportionally with dose” and the “Fraction of administered dose in semen” value ([1]; healthy subjects) was “Less than 0.0005%”. For the same compound, the Mean oral clearance ([1]; healthy subjects) was 2.5 L/h, the Mean terminal half-life ([1]; healthy subjects) was 17.5 h and the “Steady-state exposure relative to a single dose” value ([1]; once-daily dosing) was “approximately 1.6 fold”. The “Time to steady-state plasma concentrations” value ([1]; once-daily dosing) was ≤ 5 days, the “Mean apparent volume of distribution” value ([1]; oral administration) was “approximately 63 L” and the “Effect of food on rate and extent of absorption” value ([1]; oral) was “not influenced by food”. For the same compound, the “Excretion in the feces” value ([1]; predominantly as metabolites) was “approximately 61 % of the dose”, the “Excretion in the urine” value ([1]; predominantly as metabolites) was “approximately 36 % of the dose” and the tmax values ([1]; range) was 0.5 to 6 h. For the same compound, the “Fraction in plasma bound to proteins” value ([1]; therapeutic concentrations) was 94%, the Solubility ([3]; ethanol) was “very slightly soluble” and the Solubility ([3]; water) was “practically insoluble”.
